# Laboratory results taken from patent publication US20250085284A1, “PRODUCTS AND USES THEREOF FOR PREDICTING THE SENSITIVITY OF A SUBJECT TO CANCER IMMUNOTHERAPY INVOLVING AN ANTI-PD(L)1 AND AN ANTI-ANGIOGENIC AGENT, AND FOR SELECTING OPTIMIZED THERAPY” (INSTITUT GUSTAVE ROUSSY, priority 2023, published 2025).
# How the values were obtained:
# [1] = tested on: plasma cytokines, chemokines and soluble angiogenic factors; test: Plasma cytokine, chemokine and soluble factor titration on treatment (D-7, C1D1, C1D8); format: in vivo, human
# Description: Frozen plasma and frozen tumor biopsy supernatants were subsequently thawed, centrifuged for 15 min at 1,000 g, then titrated using Bio-Plex Pro™ Human Chemokine Panel (40-Plex, ref. 171AK99MR2, Bio-rad), Angiogenesis Panel 1 (human) (ref. K151P3S-1, Meso Scale Discovery), Human PD-1 and PD-L1 antibody sets (ref. F214A-3 & F214C-3, Meso Scale Discovery) following manufacturer's instructions. Each sample was run twice with the average value of the doublet taken as the result. Acquisitions were done on Bio-Plex 200™ System and MESO™ QuickPlex SQ120 readers. Raw data from Meso Scale Discovery's kit were analyzed with MSD's Discovery Workbench 4.0.
# Inventors took advantage of the one-week lead-in nintedanib monotherapy prior to the pembrolizumab introduction to analyze the respective effects of the two drugs. Sequential blood sampling was performed at baseline and on-treatment in order to identify selective phannacodynamic markers of Nintedanib and Pembrolizumab that occurred upon treatment in all patients and independently from the treatment efficacy. Plasma was obtained from blood draws collected at baseline (D-7), one week after the nintedanib monotherapy lead-in (C1D1) and one week after the addition of pembrolizumab (C1D8). […] CCL15 and CXCL10 were also decreasing in all patients upon Nintedanib monotherapy but this decrease was only significant for patients with DCB (FIG. 10A).
# [2] = PEMBIB trial, mesothelioma expansion cohort: safety and tolerability (CTCAE Version 4.03); design: species or system human; settings: in vivo
# advanced mesothelioma = settings: monotherapy; n=118; cited from earlier work
# [3] = D-7 vs C1D1, one-week nintedanib monotherapy, patients with both DCB and No DCB
# [4] = nintedanib monotherapy week, all patients, only significant for DCB
# [5] = one week after initiation of pembrolizumab, DCB and No DCB
# [6] = upon pembrolizumab addition (C1D1 to C1D8), only significant in No DCB
molecule,measurement,setting,value
COC(=O)c1ccc2c(c1)NC(=O)/C2=C(\Nc1ccc(N(C)C(=O)CN2CCN(C)CC2)cc1)c1ccccc1 [nintedanib],blood Angiopoietin-2 level,[1]; [3],significantly decreased
same,blood CCL21 level,[1]; [3],significantly decreased
same,blood CCL23 level,[1]; [3],significantly decreased
same,plasma CCL8 level,"[1]; first week of nintedanib, patients with DCB",tended to decrease
same,plasma CCL8 level,"[1]; first week of nintedanib, patients with No DCB",significantly increased
same,plasma CCL15 level,[1]; [4],decreasing
same,plasma CXCL10 level,[1]; [4],decreasing
same,tolerability of nintedanib 150 mg BID versus 200 mg BID,[2],better tolerated
pembrolizumab,circulating soluble PD-1 (sPD1) median level,"[1]; C1D8, one week after addition of pembrolizumab to nintedanib, both DCB and No DCB",above 10 ng/mL
same,plasma CCL19 level,"[1]; after one week of combination with pembrolizumab, all patients",increase
same,circulating soluble PD-L1 (sPDL1) level,"[1]; one week after addition of pembrolizumab, all patients",significantly increased
same,CXCL9 serum level,[1]; [5],significant rise
same,CXCL10 serum level,[1]; [5],significant rise
same,CXCL11 serum level,[1]; [5],significant rise
same,CXCL13 serum level,[1]; [5],significant rise
same,plasma CCL3 level,[1]; [6],increased
same,plasma CCL8 level,[1]; [6],increased
same,plasma CCL17 level,[1]; [6],increased
same,plasma CCL23 level,[1]; [6],increased
same,plasma CXCL2 level,[1]; [6],decreased
same,objective response rate (ORR; BORR per RECIST1.1),advanced mesothelioma,8%
